System: Bactrocera oleae
Test: Attractiveness in glass Y-tube olfactometer (behavioural response of the olive fruit fly)
Type: in vivo
Settings: 10 ng on filter paper vs dichloromethane control; individual female flies 8 to 30 days old; Y-tube choice
Procedure: The attractiveness of the active substances of the attractant composition according to the invention was evaluated using a glass Y-tube olfactometer (internal diameter 4.5 cm; length of the arm 22 cm; length of the main stem 24.5 cm). The assembly was placed in a lit room at 22° C. Screws held the Y-tube in an inclined position (angle of […] between the Y-tube and the horizontal plane). The Y-tube was placed in the centre of an artificially lit box (60×60×60 cm), covered with sheets on the outside in order to avoid external stimuli. The tubes at the end of the Y were connected to two glass adaptors, to which 30 ml glass flasks were attached, each containing a 1 cm^2 piece of filter paper. […]
Individual female flies—from 8 to 30 days old—were released one by one into the first cm of the base tube of the olfactometer using a manual aspirator. […] The air suction tube was connected to the glass Y-tube and the time until the flies reached the end of one of the arms of the Y was recorded. […]
In order to evaluate the attractiveness of one molecule vis-à-vis Bactrocera oleae, the data collected were analyzed with a khi2 statistical test on Excel and R. The p value, obtained in this test, indicates the probability of obtaining the same value if the null hypothesis was true. […]

| SMILES | Behavioural response obtained using the substance tested (expressed in %) [%] |
| --- | --- |
| C=C1CC/C=C(\C)CC[C@@H]2[C@@H]1CC2(C)C [Beta-caryophyllene, beta-caryophyllene] | 70.00 |
| CCCCCCCCCC=O [Decanal, decanal] | 68.00 |
